Experimental data as given in PMC3799614, “Combinatorial Engineering of Dextransucrase Specificity” (PLoS ONE, 2013).

Test system: T1, DSR-S vardel Δ4N (Thio-DSR-S vardel Δ4N-His)
T1 construct: gene dsrS; truncated form (variable region and part of C-terminal region deleted)
Assay: initial velocity, released fructose by HPLC
Assay type: biochemical, Leuconostoc mesenteroides
Conditions: 50 mM sodium acetate pH 5.2, 0.05 g/L CaCl2, 25 °C; 10-600 mM sucrose; fit with substrate inhibition
Description: initial velocity, released fructose by HPLC on DSR-S vardel Δ4N (Thio-DSR-S vardel Δ4N-His)

Km: 115.8 mM
Structure (SMILES): OC[C@H]1O[C@@](CO)(O[C@H]2O[C@H](CO)[C@@H](O)[C@H](O)[C@H]2O)[C@@H](O)[C@@H]1O [sucrose]
